This assay can be described thus: Alamethicin channel currents across PTFE-supported bilayer lipid membrane. As to conditions: alamethicin 100 ng/ml on both sides of PTFE support matrix. It counts as biochemical. As to the method:
Alamethicin is a peptide that spontaneously inserts itself into a bilayer lipid membrane. Molecules of alamethicin can diffuse within the plane of the membrane and may associate with other alamethicin molecules to form a channel for the passage of small ions when a voltage is applied across a bilayer lipid membrane.
Given the above, alamethicin was used as an indicator of bilayer lipid membrane formation success.
In this example, alamethicin is dissolved in 100% ethanol (5 μg/ml) and stored at 4° C. After the bilayer lipid membrane is formed, alamethicin is added to solutions on both sides of the PTFE support matrix 11 to a final concentration of 100 ng/ml. Electrochemical measurements were then carried out using a two electrode system. Silver/silver chloride wires were used as the working and reference electrodes and based on measurements taken, channels were observed after 10 minutes.
The nature of the electrical current caused by the flow of ions is understood to be dependent on: • 1. The concentration of ions bathing the bilayer lipid membrane, • 2. The voltage applied and, • 3. The concentration of alamethicin.

Peptide text beside a SMILES is read from it.

Take `CC(=O)NC(C)(C)C(=O)N1CCC[C@H]1C(=O)NC(C)(C)C(=O)N[C@@H](C)C(=O)NC(C)(C)C(=O)N[C@@H](C)C(=O)N[C@@H](CCC(N)=O)C(=O)NC(C)(C)C(=O)N[C@H](C(=O)NC(C)(C)C(=O)NCC(=O)N[C@@H](CC(C)C)C(=O)NC(C)(C)C(=O)N1CCC[C@H]1C(=O)N[C@H](C(=O)NC(C)(C)C(=O)NC(C)(C)C(=O)N[C@@H](CCC(=O)O)C(=O)N[C@@H](CCC(N)=O)C(=O)N[C@H](CO)Cc1ccccc1)C(C)C)C(C)C` [alamethicin] (HELM PEPTIDE1{[ac].[Aib].P.[Aib].A.[Aib].A.Q.[Aib].V.[Aib].G.L.[Aib].P.V.[Aib].[Aib].E.Q.[OC[C@H](Cc1ccccc1)N[*:1]]}$$$$V2.0): the “time after which channels were observed” value came out at 10 min.

Source of the values: patent publication US20080318326A1 (priority 2005, published 2008).
